Data: the supplement of paper PMC12317010
Counter-ions that a name gives are not always drawn.

Test: collision cross section in nitrogen (drift tube, single-field); higher = larger gas-phase ion size
[1] = ion type: [M+H], ion source: APCI, ion mode: Positive
[2] = ion type: [M+H], ion source: ESI, ion mode: Positive
[3] = ion type: [M-H], ion source: ESI, ion mode: Negative
[4] = ion type: [M+Na], ion source: ESI, ion mode: Positive
[5] = ion source: APCI, ion mode: Positive, ion type: [M]+ (permanent cation)
[6] = ion source: ESI, ion mode: Positive, ion type: [M]+ (permanent cation)
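Also: chemical standards at 10 µM analysed by drift tube IMS-QTOF MS in about 3.95 torr nitrogen, mean of duplicate injections differing ≤1%, mass error below 10 ppm.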

| Structure (SMILES) | collision cross section in nitrogen [1] [Å²] | collision cross section in nitrogen [2] [Å²] | collision cross section in nitrogen [3] [Å²] | collision cross section in nitrogen [4] [Å²] | further results |
| --- | --- | --- | --- | --- | --- |
| S=C(NC1CCCCC1)NC1CCCCC1 [N,N'-Dicyclohexylthiourea] | 163 | 162.9 | 165.7 | – | – |
| C=CC(=O)NCNC(=O)C=C [N,N'-Methylenebisacrylamide] | – | – | – | 138.1 | – |
| Cc1ccc(N(C)C)cc1 [N,N,4-Trimethylaniline] | – | – | – | 128.2 | – |
| CCCCN(CCCC)CCCCCCN(CCCC)CCCC [N,N,N',N'-Tetrabutyl-1,6-hexanediamine] | – | 193.6 | – | – | – |
| CCCCCCCCCCCCCCCCCC[N+](C)(C)C [N,N,N-Trimethyloctadecan-1-aminium chloride] | – | – | – | – | collision cross section in nitrogen [5]: 200.2 Å²; collision cross section in nitrogen [6]: 200.7 Å² |
| CCCC[N+](C)(CCCC)CCCC [N,N-Dibutyl-N-methylbutan-1-aminium chloride] | – | – | – | – | collision cross section in nitrogen [5]: 153.8 Å²; collision cross section in nitrogen [6]: 154.5 Å² |
| c1ccc2sc(SN(C3CCCCC3)C3CCCCC3)nc2c1 [N,N-Dicyclohexyl-2-benzothiazolesulfenamide] | 186.2 | 185.8 | – | 193.7 | – |
| CCN(CC)c1ccccc1 [N,N-Diethylaniline] | – | – | – | 132.8 | – |
| CCCCCCCCCCCC(=O)N(CC)CC [N,N-Diethyldodecanamide] | 179.7 | 179.1 | – | 179.4 | – |
| CN(C)c1ccc(N=O)cc1 [N,N-Dimethyl-4-nitrosoaniline] | 128.7 | 128.4 | – | – | – |
| CN(C)c1ccccc1 [N,N-Dimethylaniline] | – | – | – | 123.8 | – |
| CCCCCCCCCC[N+](C)(C)[O-] [N,N-Dimethyldecylamine oxide] | – | 164.1 | – | 166.7 | – |
| CCCCCCCCCCCC[N+](C)(C)[O-] [N,N-Dimethyldodecylamine-N-oxide] | 175.3 | 174.4 | – | 170.8 | – |
| CCCCCCCC(=O)N(C)C [N,N-Dimethyloctanamide] | 146.6 | 146.8 | – | – | – |
| CN(C)c1ccncc1 [N,N-dimethylpyridin-4-amine] | 120.6 | 120.5 | – | – | – |
| CCC(CC)Nc1ccc(C)c(C)c1 [N-(1-Ethylpropyl)-3,4-xylidine] | – | – | – | 151.1 | – |
| CCCCCCC(C)Nc1ccc(Nc2ccccc2)cc1 (centres undefined) [N-(1-Methylheptyl)-N'-phenyl-1,4-benzenediamine] | – | – | – | 190 | – |
| CC(=O)CC(=O)Nc1ccc(C)cc1C [N-(2,4-Dimethylphenyl)-3-oxobutanamide] | 147.7 | – | 148.8 | 160.6 | – |
| CC(=O)Nc1ccc(C)cc1C [N-(2,4-Dimethylphenyl)acetamide] | – | 136.2 | – | – | – |
| Cc1ccc(NC=O)c(C)c1 [N-(2,4-Dimethylphenyl)formamide] | – | – | 133.8 | – | – |
| COc1ccc(OC)c(NC(=O)CC(C)=O)c1 [N-(2,5-Dimethoxyphenyl)-3-oxobutanamide] | – | – | 154.4 | 159.2 | – |
| O=C(Nc1ccc2c(c1)Cc1ccccc1-2)C(F)(F)F [N-(2-Fluorenyl)-2,2,2-trifluoroacetamide] | – | – | 160.4 | – | collision cross section in nitrogen (ion type: [M+], ion source: APCI, ion mode: Positive): 156.6 Å² |
| COc1ccccc1NC(=O)CC(C)=O [N-(2-Methoxyphenyl)-3-oxobutanamide] | – | – | – | 152.3 | – |
| CC(=O)CC(=O)Nc1ccccc1C [N-(2-Methylphenyl)-3-oxobutanamide] | – | – | 142.5 | 154.9 | – |
| CNC(=O)Nc1ccc(Cl)c(Cl)c1 [N-(3,4-Dichlorophenyl)-N'-methylurea] | – | – | 142.4 | – | – |
| NC(=O)Nc1ccc(Cl)c(Cl)c1 [N-(3,4-Dichlorophenyl)urea] | – | – | 135.7 | – | – |

| Structure (SMILES) | collision cross section in nitrogen [1] [Å²] | collision cross section in nitrogen [2] [Å²] | collision cross section in nitrogen [3] [Å²] | collision cross section in nitrogen [4] [Å²] | further results |
| --- | --- | --- | --- | --- | --- |
| CCC(=O)Nc1cccc(N)c1 [N-(3-Aminophenyl)propanamide] | 135.8 | 136.5 | 138.7 | – | – |
| C(=CNc1ccccc1)C=Nc1ccccc1 [N-(3-Anilino-2-propenylidene)aniline monohydrochloride] | – | 159.3 | 158.6 | – | – |
| CC(=O)Nc1ccc(C)c(Cl)c1 [N-(3-Chloro-4-methylphenyl)acetamide] | – | – | 138.2 | – | – |
| COc1cc2ncnc(Nc3cccc(Cl)c3)c2cc1OC [N-(3-Chlorophenyl)-6,7-dimethoxyquinazolin-4-amine] | 177.3 | 171 | 177.1 | – | – |
| C=C(C)C(=O)NCCCN(C)C [N-(3-Dimethylaminopropyl)methacrylamide] | 135.8 | 137.1 | – | – | – |
| CCOc1ccc(NC(=O)CC(C)=O)cc1 [N-(4-Ethoxyphenyl)-3-oxobutanamide] | 154.6 | – | 155.9 | 167.3 | – |
| COc1ccc(NC(=O)CC(C)=O)cc1 [N-(4-Methoxyphenyl)-3-oxobutanamide] | 146.5 | – | 148.5 | 160.2 | – |
| O=C(NCc1cccnc1)Nc1ccc([N+](=O)[O-])cc1 [N-(4-Nitrophenyl)-N'-(3-pyridinylmethyl)urea] | 174.7 | 174.3 | 165.3 | – | – |
| CC(C)C[C@H](NC(=O)OCC1c2ccccc2-c2ccccc21)C(=O)O [N-(9-Fluorenylmethoxycarbonyl)-L-leucine] | – | – | – | 184.7 | – |
| c1ccc(CNc2[nH]cnc3ncnc2-3)cc1 [N-Benzyl-1H-purin-6-amine] | 148.7 | 148.3 | 154.5 | 162.8 | – |
| c1ccc(CNc2ncnc3c2ncn3C2CCCCO2)cc1 (centres undefined) [N-Benzyl-9-(tetrahydro-2H-pyran-2-yl)adenine] | 177.9 | 176.5 | 185.6 | 189.3 | – |
| CC(=O)NCc1ccccc1 [N-Benzylacetamide] | – | – | 135.1 | – | – |
| OCCNCc1ccccc1 [N-Benzylethanolamine] | – | 134.9 | – | – | – |
| CCCCNC1CC(C)(C)NC(C)(C)C1 [N-Butyl-2,2,6,6-tetramethylpiperidin-4-amine] | 153.3 | 154 | – | – | – |
| CCCCNS(=O)(=O)c1ccc(C)cc1 [N-Butyl-p-toluenesulfonamide] | – | – | 155 | 169.3 | – |
| CCCCNS(=O)(=O)c1ccccc1 [N-Butylbenzenesulfonamide] | – | – | 148.3 | – | – |
| CCCCN(CCO)CCO [N-Butyldiethanolamine] | 136.3 | 136.7 | – | – | – |
| CCCC[n+]1ccccc1 [N-Butylpyridinium chloride] | – | – | – | – | collision cross section in nitrogen [6]: 127.7 Å² |
| N#CCCN(CCO)c1ccccc1 [N-Cyanoethyl-hydroxyethyl aniline] | – | 142.8 | – | – | – |
| CCCCCCCCCCCC(=O)N(C)CC(=O)O [N-Dodecanoyl-N-methylglycine] | – | – | 170.1 | 175.7 | – |
| CCNC(=O)C1CC(C)CCC1C(C)C (centres undefined) [N-Ethyl-2-(isopropyl)-5-methylcyclohexanecarboxamide] | 153.5 | 152.7 | 155.6 | 171.3 | – |
| CCN(CCN)c1cccc(C)c1 [N-Ethyl-N-(3-methylphenyl)ethane-1,2-diamine] | 139.5 | 140.5 | – | – | – |
| CCNS(=O)(=O)C(F)(F)C(F)(F)C(F)(F)C(F)(F)C(F)(F)C(F)(F)C(F)(F)C(F)(F)F [N-Ethylperfluorooctane sulfonamide] | – | – | 180.4 | – | – |
| CCN1C(=O)c2ccccc2C1=O [N-Ethylphthalimide] | 133.7 | 135.4 | – | – | – |
| CN(N=O)c1ccccc1 [N-Methyl-N-nitrosoaniline] | 124.5 | 125.1 | – | – | – |
| CN1C(=O)c2ccccc2C1=O [N-Methylphthalimide] | 129 | – | – | – | – |
